The results in this text go back to US5110800A, “Derivatives of erythromycylamine” (Eli Lilly and Company, priority 1989, dated 1992).

What all share (assay): MIC, standard agar-dilution assay
Common to all, as to assay type: cell-based

The test system of assay [1] is Staphylococcus aureus X1.1. Particulars: Staphylococcus aureus, X1.1, read-out: minimal inhibitory concentration (MIC).
For assay [2], the system named is Staphylococcus aureus V41. As to conditions: Staphylococcus aureus, V41; Table IV; penicillin-resistant strain; inducibly erythromycin-resistant; read-out: minimal inhibitory concentration (MIC). An excerpt:
(§1) In addition to excellent in vitro activity against erythromycin-sensitive bacteria, several members of this new series have shown in vitro activity against erythromycin-resistant strains. These include strains which are inducibly-resistant to erythromycin (S. aureus V41 and X400 and S. epidermidis EPI1) and even strains which are constitutively-resistant (S. epidermidis 270).

Assay [3] deals with Staphylococcus aureus X400. As to conditions: Staphylococcus aureus, X400; Table IV; methicillin-resistant strain; inducibly erythromycin-resistant; read-out: minimal inhibitory concentration (MIC).
From the text: as §1

In assay [4] the test system is Staphylococcus epidermidis 270. Particulars: Staphylococcus epidermidis, 270; Table IV; constitutively erythromycin-resistant; read-out: minimal inhibitory concentration (MIC).
From the text: as §1

The subject of assay [5] is Staphylococcus epidermidis 222. Particulars: Staphylococcus epidermidis, 222, read-out: minimal inhibitory concentration (MIC).
The subject of assay [6] is Streptococcus pyogenes C203. As to conditions: Streptococcus pyogenes, C203, read-out: minimal inhibitory concentration (MIC).
For assay [7], the system named is Streptococcus sp. group D X66. As to conditions: Streptococcus, read-out: minimal inhibitory concentration (MIC).
The test system of assay [8] is Streptococcus sp. group D 2041. As to conditions: Streptococcus, read-out: minimal inhibitory concentration (MIC).
For assay [9], the system named is Streptococcus pneumoniae Park I. As to conditions: Streptococcus pneumoniae, read-out: minimal inhibitory concentration (MIC).
Assay [10] has as its system Haemophilus influenzae C.L. As to conditions: Haemophilus influenzae, read-out: minimal inhibitory concentration (MIC).
Another assay deals with Escherichia coli EC14. As to conditions: Escherichia coli.
The subject of assay [11] is Klebsiella pneumoniae X68. As to conditions: Klebsiella pneumoniae.
Assay [12] relates to Haemophilus influenzae 76. As to conditions: Haemophilus influenzae, 76, read-out: minimal inhibitory concentration (MIC).
The mark [13] stands for this setting: EC14, read-out: minimal inhibitory concentration (MIC).
[14] abbreviates: X68, Table IV, agar dilution, read-out: minimal inhibitory concentration (MIC).
[15] abbreviates: EC14, Table IV, agar dilution, read-out: minimal inhibitory concentration (MIC).

≈ marks a conversion by molar mass, not a printed value. Like-named read-outs stand apart in the source and are kept apart here.

On to `CC[C@H]1OC(=O)[C@H](C)[C@@H](O[C@H]2C[C@@](C)(OC)[C@@H](O)[C@H](C)O2)[C@H](C)[C@@H](O[C@@H]2O[C@H](C)C[C@H](N(C)C)[C@H]2O)[C@](C)(O)C[C@@H](C)[C@H](NCCCOC)[C@H](C)[C@@H](O)[C@]1(C)O` [Compound 23, (9S)-9-Deoxo-9-[(3-methoxypropyl)amino]erythromycin], for which the MIC in assay [1] is 2 µg/mL (≈ 2.48 µM); in [2], > 128 µg/mL; in assay [3], > 128 µg/mL; in assay [4], > 128 µg/mL; in [5], 0.5 µg/mL (≈ 0.62 µM); in assay [6] it was 0.125 µg/mL (≈ 0.155 µM). The MIC in assay [7] is 0.25 µg/mL (≈ 0.31 µM); in [8] it was 8 µg/mL (≈ 9.91 µM).

With `CC[C@H]1OC(=O)[C@H](C)[C@@H](O[C@H]2C[C@@](C)(OC)[C@@H](O)[C@H](C)O2)[C@H](C)[C@@H](O[C@@H]2O[C@H](C)C[C@H](N(C)C)[C@H]2O)[C@](C)(O)C[C@@H](C)[C@H](NCCCc2ccccc2)[C@H](C)[C@@H](O)[C@]1(C)O` [Compound 17, (9S)-9-Deoxo-9-[(3-phenylpropyl)amino]erythromycin], the MIC in [1] was 1 µg/mL (≈ 1.17 µM); in [2], > 128 µg/mL; in assay [3], > 128 µg/mL; in [4] it was > 128 µg/mL; in assay [5], 0.5 µg/mL (≈ 0.586 µM); in assay [6] it was 0.015 µg/mL (≈ 0.0176 µM). Further, the MIC is 0.015 µg/mL (≈ 0.0176 µM) in assay [9]; 0.06 µg/mL (≈ 0.0703 µM) in [7]; 2 µg/mL (≈ 2.34 µM) in [8]; 2 µg/mL (≈ 2.34 µM) in [10]; 128 µg/mL (≈ 150 µM) in the assay with Escherichia coli EC14 (setting [13]); > 128 µg/mL in assay [11] (setting [14]).

Consider `CCCCCCCCCCCCN[C@@H]1[C@H](C)[C@@H](O)[C@](C)(O)[C@@H](CC)OC(=O)[C@H](C)[C@@H](O[C@H]2C[C@@](C)(OC)[C@@H](O)[C@H](C)O2)[C@H](C)[C@@H](O[C@@H]2O[C@H](C)C[C@H](N(C)C)[C@H]2O)[C@](C)(O)C[C@H]1C` [Compound 10, 9-Deoxo-9-(n-dodecylamino)erythromycin], for which the MIC is 0.06 µg/mL (≈ 0.0664 µM) in [9], 1 µg/mL (≈ 1.11 µM) in [7], > 128 µg/mL in the assay with Escherichia coli EC14 (setting [15]) and > 128 µg/mL in assay [11] (setting [14]).

As for `CCCCC/C=C\CCCN[C@@H]1[C@H](C)[C@@H](O)[C@](C)(O)[C@@H](CC)OC(=O)[C@H](C)[C@@H](O[C@H]2C[C@@](C)(OC)[C@@H](O)[C@H](C)O2)[C@H](C)[C@@H](O[C@@H]2O[C@H](C)C[C@H](N(C)C)[C@H]2O)[C@](C)(O)C[C@H]1C` [Compound 13], the MIC is 0.25 µg/mL (≈ 0.286 µM) in assay [1]; 0.06 µg/mL (≈ 0.0687 µM) in assay [7]; 2 µg/mL (≈ 2.29 µM) in [10]; 128 µg/mL (≈ 147 µM) in the assay on Escherichia coli EC14 (setting [13]); > 128 µg/mL in assay [11] (setting [14]).

As to `CCCCCN[C@@H]1[C@H](C)[C@@H](O)[C@](C)(O)[C@@H](CC)OC(=O)[C@H](C)[C@@H](O[C@H]2C[C@@](C)(OC)[C@@H](O)[C@H](C)O2)[C@H](C)[C@@H](O[C@@H]2O[C@H](C)C[C@H](N(C)C)[C@H]2O)[C@](C)(O)C[C@H]1C` [Compound 5, 9-Deoxo-9-(n-pentylamino)erythromycin], the MIC is > 128 µg/mL in [2]; > 128 µg/mL in [3]; > 128 µg/mL in [4]; 0.06 µg/mL (≈ 0.0745 µM) in [6]; 0.015 µg/mL (≈ 0.0186 µM) in assay [9]; 0.125 µg/mL (≈ 0.155 µM) in assay [7]. Also, the MIC in the assay with Escherichia coli EC14 (setting [13]) was determined as 128 µg/mL (≈ 159 µM); in [11] (X68, read-out: minimal inhibitory concentration (MIC)), 128 µg/mL (≈ 159 µM).

On to `CC[C@H]1OC(=O)[C@H](C)[C@@H](O[C@H]2C[C@@](C)(OC)[C@@H](O)[C@H](C)O2)[C@H](C)[C@@H](O[C@@H]2O[C@H](C)C[C@H](N(C)C)[C@H]2O)[C@](C)(O)C[C@@H](C)[C@H](NCCCSC)[C@H](C)[C@@H](O)[C@]1(C)O` [Compound 26, 9-Deoxo-9-[[3-(methylthio)propyl]amino]erythromycin], for which the MIC is > 128 µg/mL in [2]; > 128 µg/mL in [3]; > 128 µg/mL in assay [4]; 0.015 µg/mL (≈ 0.0182 µM) in assay [6]; 0.015 µg/mL (≈ 0.0182 µM) in assay [9]; 0.25 µg/mL (≈ 0.304 µM) in [7]. Besides, the MIC in the assay on Escherichia coli EC14 (setting [13]) is 128 µg/mL (≈ 156 µM); in assay [11] (setting [14]) it was > 128 µg/mL.

Consider `CCCCC/C=C/CCCN[C@@H]1[C@H](C)[C@@H](O)[C@](C)(O)[C@@H](CC)OC(=O)[C@H](C)[C@@H](O[C@H]2C[C@@](C)(OC)[C@@H](O)[C@H](C)O2)[C@H](C)[C@@H](O[C@@H]2O[C@H](C)C[C@H](N(C)C)[C@H]2O)[C@](C)(O)C[C@H]1C` [Compound 14, 9-Deoxo-9-[(trans-dec-4-enyl)amino]erythromycin], for which the MIC was 0.5 µg/mL (≈ 0.573 µM) in assay [1]; 0.25 µg/mL (≈ 0.286 µM) in [5]; 2 µg/mL (≈ 2.29 µM) in [8]; 2 µg/mL (≈ 2.29 µM) in [10]; 128 µg/mL (≈ 147 µM) in the assay on Escherichia coli EC14 (setting [13]); > 128 µg/mL in [11] (setting [14]).

Consider `CCCCN[C@@H]1[C@H](C)[C@@H](O)[C@](C)(O)[C@@H](CC)OC(=O)[C@H](C)[C@@H](O[C@H]2C[C@@](C)(OC)[C@@H](O)[C@H](C)O2)[C@H](C)[C@@H](O[C@@H]2O[C@H](C)C[C@H](N(C)C)[C@H]2O)[C@](C)(O)C[C@H]1C` [Compound 4, 9-Deoxo-9-(n-butylamino)erythromycin], for which the MIC in assay [1] is 0.25 µg/mL (≈ 0.316 µM); in assay [2], > 128 µg/mL; in assay [3] it was > 128 µg/mL; in assay [4], > 128 µg/mL; in [5], 0.25 µg/mL (≈ 0.316 µM); in assay [6], 0.06 µg/mL (≈ 0.0758 µM). For the same molecule, the MIC in assay [9] turned out to be 0.015 µg/mL (≈ 0.019 µM); in assay [7], 0.125 µg/mL (≈ 0.158 µM); in [8], 1 µg/mL (≈ 1.26 µM); in assay [10], 1 µg/mL (≈ 1.26 µM); in assay [12] it was 1 µg/mL (≈ 1.26 µM).

In the case of `CC[C@H]1OC(=O)[C@H](C)[C@@H](O[C@H]2C[C@@](C)(OC)[C@@H](O)[C@H](C)O2)[C@H](C)[C@@H](O[C@@H]2O[C@H](C)C[C@H](N(C)C)[C@H]2O)[C@](C)(O)C[C@@H](C)[C@H](NCCC(C)CCCC(C)(C)OC)[C@H](C)[C@@H](O)[C@]1(C)O` (some centres unmarked) [Compound 24, 9-Deoxo-9-[(7-methoxy-3,7-dimethyloctyl)amino]erythromycin], the MIC in assay [1] is 0.5 µg/mL (≈ 0.552 µM); in [4], > 128 µg/mL; in assay [5], 0.25 µg/mL (≈ 0.276 µM); in [6] it was 0.015 µg/mL (≈ 0.0166 µM); in [8], 2 µg/mL (≈ 2.21 µM); in the assay with Escherichia coli EC14 (setting [13]), 128 µg/mL (≈ 141 µM). For the same molecule, the MIC in assay [11] (setting [14]) was > 128 µg/mL.

`CC[C@H]1OC(=O)[C@H](C)[C@@H](O[C@H]2C[C@@](C)(OC)[C@@H](O)[C@H](C)O2)[C@H](C)[C@@H](O[C@@H]2O[C@H](C)C[C@H](N(C)C)[C@H]2O)[C@](C)(O)C[C@@H](C)[C@H](NCC2CCCCCCC2)[C@H](C)[C@@H](O)[C@]1(C)O` [Compound 16, 9-Deoxo-9-[(cyclooctylmethyl)amino]erythromycin]: the MIC was 0.5 µg/mL (≈ 0.582 µM) in [1]; > 128 µg/mL in [4]; 0.25 µg/mL (≈ 0.291 µM) in [5]; 1 µg/mL (≈ 1.16 µM) in [8]; 1 µg/mL (≈ 1.16 µM) in [12]; > 128 µg/mL in assay [11] (setting [14]).

For `CCCCCCCCCCN[C@@H]1[C@H](C)[C@@H](O)[C@](C)(O)[C@@H](CC)OC(=O)[C@H](C)[C@@H](O[C@H]2C[C@@](C)(OC)[C@@H](O)[C@H](C)O2)[C@H](C)[C@@H](O[C@@H]2O[C@H](C)C[C@H](N(C)C)[C@H]2O)[C@](C)(O)C[C@H]1C` [Compound 9, 9-Deoxo-9-(n-decylamino)erythromycin], the MIC in assay [1] was found to be 1 µg/mL (≈ 1.14 µM); in assay [5] it was 1 µg/mL (≈ 1.14 µM); in [6], 0.015 µg/mL (≈ 0.0171 µM); in assay [9], 0.015 µg/mL (≈ 0.0171 µM); in [7], 0.25 µg/mL (≈ 0.286 µM); in [8], 2 µg/mL (≈ 2.29 µM). Also, the MIC in assay [10] is 2 µg/mL (≈ 2.29 µM); in [12], 1 µg/mL (≈ 1.14 µM); in the assay with Escherichia coli EC14 (setting [15]), > 128 µg/mL; in [11] (setting [14]), > 128 µg/mL.

Regarding `CC[C@H]1OC(=O)[C@H](C)[C@@H](O[C@H]2C[C@@](C)(OC)[C@@H](O)[C@H](C)O2)[C@H](C)[C@@H](O[C@@H]2O[C@H](C)C[C@H](N(C)C)[C@H]2O)[C@](C)(O)C[C@@H](C)[C@H](NC)[C@H](C)[C@@H](O)[C@]1(C)O` [Compound 1, 9-Deoxo-9-(methylamino)erythromycin], the MIC in assay [1] was 1 µg/mL (≈ 1.34 µM); in assay [4], > 128 µg/mL; in assay [5], 0.25 µg/mL (≈ 0.334 µM); in assay [6], 0.06 µg/mL (≈ 0.0801 µM); in [7] it was 0.125 µg/mL (≈ 0.167 µM); in assay [8], 1 µg/mL (≈ 1.34 µM). Further, the MIC in assay [12] was found to be 1 µg/mL (≈ 1.34 µM).
